The conditions of data set [1]: background; natural prostacyclin under neutral or acidic conditions; cited from earlier work.
Data set [2] can be described thus: heart rate, intravenous injection in anesthetized rats. The format is in vivo, rat (male wister). The following applies: rat, i.v., dosage causing a 10% increase of heart rate. The protocol:
(§1) (ii) Measurement of the hypotensive activity
(§2) The actions of the 9(0)-methano-Δ^6(9) -prostaglandin 1, obtained in Example 3 on the blood pressure and heart rate of rats were examined by intravenous injection under anesthesia.
(§3) Male wister rats weighing about 250 g were used. Urethane (500 mg/kg) and α-chloralose (100 mg/kg) were intraperitoneally administered to the rats. The rats were anesthetized and fixed place.
(§4) The test compound was dissolved in a small amount of ethanol and diluted with 0.05M Tris buffer saline (pH 9) to adjust the final ethanol concentration to not more than 5%. The solution was intravenously injected into the rats through a cathether inserted into the femoral vein.
(§5) The blood pressure of the rats was measured by a pressure transducer through a cathether inserted into the carotid artery of the rats. The heart rate was determined from the blood pressure pulse.
(§6) The action of the test compound on the blood pressure was expressed as the dosage (ED20, μg/kg) of the test compound which caused a 20% lowering of the mean blood pressure before administration of the compound. The action of the test compound on the heart rate was expressed as the dosage (ED10, μg/kg) of the test compound which caused a 10% increase of the heart rate from the heart rate before administration of the test compound.

Data set [3] is described as follows: hypotensive activity, intravenous injection in anesthetized rats: blood pressure. The format is in vivo, rat (male wister). The following applies: rat, i.v., dosage causing a 20% lowering of mean blood pressure. The method, then: as §1, §2, §3, §4, §5, §6
Data set [4] has as its system platelet aggregation (rabbit platelet-rich plasma, ADP). As to the kind of experiment: in vitro inhibition of ADP-induced platelet aggregation. The following applies: Oryctolagus cuniculus. The format is cell-based, rabbit (Japanese domestic white male). The method, then:
(i) Measurement of in vitro inhibitory activity of platelet aggregation
The in vitro platelet aggregation inhibiting activities of 9(0)-methano-Δ^6(9) -prostaglandin I, obtained in Example 3 was examined by using rabbits. Blood was withdrawn from the ear vein of Japanese domestic white male rabbits weighing 2.5 to 3.5 kg. A mixture of a 3.8% trisodium citrate solution and the blood in a ratio of 1:9 was centrifuged at a speed of 1000 rpm for 10 minutes. The upper layer was separated as platelet-rich plasma (PRP). The lower layer was further centrifuged at a speed of […] for 10 minutes. The upper layer was separated as platelet-poor plasma (PPP). The number of platelets was adjusted to 6×10^5 /μl to 7×10^5 /μl by diluting the PRP with PPP. 25 microliters of the test compound prepared as shown below was added in an amount of 250 microliters of PRP after the adjustment, and the mixture was pre-incubated at 37° C. for 2 minutes, and then 10 μM (final) of ADP was added. By using an aggregometer, changes in transmission were recorded.
The test compound was dissolved in ethanol to a concentration of 10 mg/ml. When its activity was measured, it was used after being diluted with phosphate buffer (pH 7.4).
The rate of inhibition of platelet aggregation was determined from the following equation. [formula] To : the transmittance of the system containing the phosphate buffer, T: the transmittance of the system to which the test compound was added.
The minimum concentration of the compound which inhibited more than 50% of platelet aggregation was shown as an IC50 value.

In data set [5] the test system is epithelial cells of rabbits. The experiment in a line: cell protecting action against cell lethal action at pH 3. Type of data set: cell-based, rabbit. The settings on record: 10^-6 M.
The conditions of data set [6]: background; cited from earlier work.
Where [7] appears, read: rabbit PRP, 10 μM ADP, minimum concentration which inhibited more than 50% of platelet aggregation, read-out: platelet aggregation inhibiting activity IC50.

≈ marks a conversion by molar mass, not a printed value. Like-named read-outs stand apart in the source and are kept apart here. Where only a bound is given, the exact number is not on record here.

For orientation: IC50 means the concentration that gives 50% inhibition.

For `CCCCC[C@H](O)/C=C/[C@@H]1[C@H]2C/C(=C/CCCC(=O)O)O[C@H]2C[C@H]1O` [PGI2], in data set [1], the “chemical stability, in words” value is recorded as “apt to be appreciably hydrolyzed”. The “increase of heart rate ED10” value in data set [2] was over 10 µg/kg. In data set [3], this compound yielded an ED20 of 0.068 µg/kg. The IC50 in data set [4] (setting [7]) amounted to 1.6 ng/mL (≈ 0.00454 µM).
Regarding `CCCCC[C@H](O)/C=C/[C@@H]1[C@H]2CC(CCCCC(=O)O)=C[C@H]2C[C@H]1O` [9(0)-methano-Δ^6(9) -prostaglandin I1], the “increase of heart rate ED10” value in data set [2] is over 30 µg/kg. Further, in data set [3], the ED20 was 1.7 µg/kg. Besides, the cell protecting action entry in data set [5] is “has a cell protecting action”. Also, the half-inhibitory concentration (IC50) was 5.4 ng/mL (≈ 0.0154 µM) in data set [4] (Platelet, rabbits, induced by ADP, read-out: inhibition of platelet aggregation IC50) and 5.4 ng/mL (≈ 0.0154 µM) in data set [4] (setting [7]).
For the compound `CCCCC[C@H](O)/C=C/[C@@H]1[C@H]2C/C(=C\CCCC(=O)O)C[C@H]2C[C@H]1O` [6,9-(0)-methanoprostacyclin], the “chemical stability, in words” value in data set [1] is “able to satisfy the chemical stableness to perfection”. Further, in data set [6], the “action-selectivity, in words” value was “not enough specific in action-selectivity” and the “biological activity relative to natural prostacyclin, in words” value is “inferior to natural prostacyclin in biological activity”.

The values above are taken from patent US4736058A, “Prostacyclins and process for production thereof” (Teijin Limited, priority 1983, dated 1988).
